Assay results as given in patent US9625449B2, “Determining the bioavailability of zinc (II) ions” (Colgate-Palmolive Company, priority 2014, dated 2017).

Tests used:
Format in all cases: physicochemical
[1] = Reaction of zincon with metal ions (colour change): Fe2+; conditions: solution with Fe^2+
Excerpt: (§1) Certain dyes used to detect zinc ions also react with other metal ions. For example, Eriochrome Black T reacts with Mg^2+ and Ca^2+ ions, which are commonly encountered in biological tissues. Sources of calcium ions are frequently included in oral care compositions.

[2] = Reaction of zincon with metal ions (colour change): Mg2+; conditions: solution with Mg^2+
Excerpt: as §1

[3] = Reaction of zincon with metal ions (colour change): Zn2+; conditions: solution with Zn^2+
Excerpt: as §1

[4] = Reaction of zincon with metal ions (colour change): Co2+; conditions: solution with Co^2+
Excerpt: as §1

[5] = Reaction of zincon with metal ions (colour change): Cu2+; conditions: solution with Cu^2+
Excerpt: as §1

[6] = Reaction of zincon with metal ions (colour change): Ca2+; conditions: solution with Ca^2+
Excerpt: as §1

[7] = Absorbance of zincon as function of pH (detection of zinc)
Excerpt: It has been reported in the literature that the working pH range for zincon is pH 8.5 to 9.5 (Yoe and Rush, 1952. “A new colorimetric reagent for zinc”, Analytica Chimica Acta, vol. 6, pp 526 to 527).

SMILES: O=C(O)c1ccccc1N=NC(=NNc1cc(S(=O)(=O)[O-])ccc1O)c1ccccc1.[Na+] [zincon, o-[α-(2-hydroxy-5-sulfophenylazo)-benzylidene hydrazino]benzoic acid]
- colour change of zincon [1]: green solution
- colour change of zincon [2]: did not undergo a colour change
- colour change of zincon [3]: deep blue complex
- colour change of zincon [4]: sky blue solution
- colour change of zincon [5]: difficult to distinguish from that of Zn^2+
- colour change of zincon [6]: did not undergo a colour change
- Absorbance of sample at 610 nm ([7]; pH 7.0): 0.233
- Absorbance of sample at 610 nm ([7]; pH 7.5): 0.232
- Absorbance of sample at 610 nm ([7]; pH 8.0): 0.245
- Absorbance of sample at 610 nm ([7]; pH 8.5): 0.251
- Absorbance of sample at 610 nm ([7]; pH 9.5): 0.252
